Experimental data taken from US20070041944A1, “Treating tumors by ENH dislocation of ID proteins” (THE TRUSTEES OF COLUMBIA UNIVERSITY IN THE CITY OF NEW YORK, priority 2005, published 2007).

What was measured:
[1] = tested on: Flag-Id2 in SK-N-SH cells; experiment: Quantitative analysis of subcellular localization of Flag-Id2 after RA (double immunofluorescence); type: cell-based, human; conditions: 48 h, SK-N-SH expressing Flag-Id2, three independent experiments
Method: Quantitative Analysis of Subcellular Localization of Id2 and siRNA Experiments: SK-N-SH-Flag-Id2 cells untreated or treated with RA for 48 h were fixed in 4% paraformaldehyde. Flag-Id2 and endogenous ENH were immunostained by using Flag-M2 (Sigma) and ENH antibodies, respectively. SK-N-SH cells were transfected with vector or p3XFlag-ENH and immunostained by using Flag-M2 and Id2 (Zymed) antibodies. For silencing of ENH, ENH siRNA (siGenome Smartpool reagent M-006930-00) and control, nontargeting (siGenome Smartpool reagent D-001206-13) siRNA mixtures were purchased from Dharmacon. SK-N-SH cells stably expressing Flag-Id2 were treated with vehicle control or RA for 48 h and transfected with 60 nM siRNAs by using Lipofectamine 2000 (Invitrogen). Thirty-six hours after transfection cells were fixed in 4% paraformaldehyde and immunostained by using Flag-M2 antibodies. Parallel cultures were analyzed by Western blot. Secondary antibodies were FITC- or Cy3-conjugated anti-rabbit and Cy3-conjugated anti-mouse (Jackson ImmunoResearch). Nuclei were counterstained with DAPI. Slides were mounted in 90% glycerol in PBS and analyzed on an Olympus epifluorescence microscope. The percentage of cells displaying Id2 staining in the nucleus was scored by counting at least 500 cells from triplicate samples. […]

SH-N and SH-F cells = experiment: Cell-cycle exit of neuroblastoma cells treated with RA; type: cell-based, human; conditions: RA 0.1 μM
Excerpt: Human neuroblastoma cells are frequently used as in vitro models to recapitulate differentiation of the nervous system. To ask whether ENH expression is regulated during differentiation of the nervous system, clonal derivatives of the human neuroblastoma cell line SK-N-SH, the SK-N-SH-N (SH-N) and SK-N-SH-F (SH-F) cells were used. These cells, which lack N-myc gene amplification, have been used to characterize the cell-cycle exit associated with differentiation of neural cells. When treated with a low concentration of RA (0.1 μM) SH-N cells undergo differentiation along the neuronal lineage, whereas SH-F cells acquire an epithelioid morphology and rapidly enter into a senescent-like state. Both cell types arrest in the G1 phase of the cell cycle within 48 h of treatment with RA. […] Although higher concentrations of RA led to marked inhibition of N-myc and Id2 gene expression in N-myc-amplified neuroblastoma cells, it was noted that RA at the concentration of 0.1 μM caused little change of Id2 expression in the SK-N-SH derivatives. However, a late decrease of Id2 protein was evident in RA-treated SH-N cells (FIG. 3D).

Flag-Id2 = experiment: cell-based or functional assay
[2] = biological target: T1, full length Id2 as bait (entire coding sequence of human Id2 in bait plasmid pDBLeu) (human, UniProt Q02363 1-134); experiment: yeast two-hybrid screen of a human fetal brain cDNA library
T1 construct: Yeast two-hybrid bait (Proquest system, pDBLeu); also called Id2 bait
T1 sequence (looked up): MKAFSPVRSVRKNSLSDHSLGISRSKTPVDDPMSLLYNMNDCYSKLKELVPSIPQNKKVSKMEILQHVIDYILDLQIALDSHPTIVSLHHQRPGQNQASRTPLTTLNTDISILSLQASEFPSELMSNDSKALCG
Method: Yeast Two-Hybrid Screening: The Proquest system (Invitrogen Life Technologies, Carlsbad, Calif.) was used for yeast two-hybrid screening. The entire coding sequence of human Id2 was subcloned into the bait plasmid pDBLeu. A human fetal brain cDNA library in pPC86 was transformed into MaV203 yeast cells and screened for interactors with the bait plasmid according to the manufacturer's protocol.
To identify new interactors of Id2 from the nervous system, a yeast two-hybrid screen was conducted with a human fetal brain cDNA library using full length Id2 as bait. This screen yielded 47 validated cDNA clones corresponding to four different Id2-associated proteins. Among them, 24 clones code for Id2, 13 clones code for the bHLH transcription factor E2-2, eight clones code for the bHLH transcription factor HEB, and two clones code for the PDZ-LIM protein ENH. All Id2 and bHLH clones retain an intact HLH domain. This finding is consistent with the essential role of the HLH domain for heterodimerization. The presence of endogenous Id2 is explained by the strong homodimerization ability of Id2 and its abundant expression in the fetal brain.

CC1=C(/C=C/C(C)=C/C=C/C(C)=C/C(=O)O)C(C)(C)CCC1 [RA, retinoic acid]
cells with Flag-Id2 relocated to the cytoplasm ([1]; ENH positive cells after RA): ~60%
cells with Flag-Id2 relocated to the cytoplasm ([1]; ENH-negative cells after RA): 10%
time to arrest in the G1 phase of the cell cycle (SH-N and SH-F cells): ≤ 48 h

endogenous ENH from RA-treated SK-N-SH neuroblastoma cells (from UniProt Q96HC4 2-596)
percentage of cells with cytoplasmic Flag-Id2 after RA treatment (double immunofluorescence) (Flag-Id2): 60%

B1: C-terminal fragment of ENH (amino acids 461-596) of the two two-hybrid clones (other)
chain: EKGALYCELCYEKFFAPECGRCQRKILGEVINALKQTWHVSCFVCVACGKPIRNNVFHLEDGEPYCETDYYALFGTICHGCEFPIEAGDMFLEALGYTWHDTCFVCSVCCESLEGQTFFSKKDKPLCKKHAHSVNF
notes: Prey clones from a human fetal brain cDNA library in pPC86; also called ENH clones
binding result [2]: binds
